In experiment [1] the test system is J774.A1 macrophages. The experiment can be described thus: TNF-α production in J774.A1 macrophages (ELISA). It counts as cell-based, murine. Particulars: for fold induction at 50 µM: Mus musculus, J774.A1, 24 h, relative fold of activation compared to vehicle (DMSO) control for 50 μM compound, N.A. = no activity was observed, read-out: TNF-α production; for Determined class of macrophage TNF-α inducing activity: experimentally determined class.

A further experiment has as its system human neutrophils. The experiment in a line: Ca2+ mobilization in human neutrophils (FLIPR Calcium 3). Particulars: Neutrophil, read-out: [Ca2+]i EC50.
In experiment [2] the test system is J774.A1 macrophages. The experiment in a line: cells. The conditions noted are these: Mus musculus, J774.A1, read-out: Ca2+ Mobilization EC50, Murine Mφ.
Protocol: Murine macrophage J774.A1 cells were cultured in DMEM supplemented with 10% (v/v) heat-inactivated fetal bovine serum (FBS), 10 mM HEPES, 100 μg/ml streptomycin, and 100 U/ml penicillin. Cells were grown to confluence in sterile tissue culture flasks and gently detached by scraping. […] All cell cultures were grown at 37° C. in a humidified atmosphere containing 5% CO2. Cell number and viability were assessed microscopically using trypan blue exclusion.

In the case of `O=C(N/N=C/c1ccc(-c2ccc([N+](=O)[O-])cc2Cl)o1)c1ccc2c(c1)OCO2` [Compound 3], the fold induction at 50 µM with J774.A1 macrophages [1] is 30 to 40. Further, the EC50 in the experiment with human neutrophils stood at 0.3 µM.

As to `CN(C)c1ccc(/C=N\NC(=O)c2ccc([N+](=O)[O-])cc2)cc1` [Compound 4], the fold induction at 50 µM in the experiment on J774.A1 macrophages [1] was 20 to 25. The concentration for a half-maximal effect (EC50) with human neutrophils stood at 9 µM.

`O=C(N/N=C/c1ccc(-c2cccc(Cl)c2Cl)o1)c1ccccc1` [Compound 5]: in the experiment on J774.A1 macrophages [1], the fold induction at 50 µM fell in the range of 7 to 10. Moreover, the EC50 in the experiment on human neutrophils worked out at 2.3 µM.

Turning to `O=C(N/N=C/c1ccc(-c2cc(Cl)ccc2Cl)o1)c1ccc([N+](=O)[O-])cc1` [Compound 7], the fold induction at 50 µM with J774.A1 macrophages [1] is under 5. In the experiment on human neutrophils, the 50% effective concentration (EC50) came to 10 µM.

As to `O=C(N/N=C/c1ccc(-c2ccc(Cl)c(Cl)c2)o1)c1ccc2c(c1)OCO2` [Compound 8], the fold induction at 50 µM with J774.A1 macrophages [1] is under 5. Moreover, the EC50 in the experiment on human neutrophils was found to be 11.9 µM.

With `Cc1ccc(C(=O)N/N=C/c2ccc(-c3cccc(C(F)(F)F)c3)o2)cn1` [Compound 9], the fold induction at 50 µM with J774.A1 macrophages [1] is under 5. The “TNF-α production, primary screening of agonists AG 1-26” value in the experiment with J774.A1 macrophages [1] (murine J774.A1 macrophages) is listed as “induced modest levels of TNF-α production”. Moreover, the EC50 in the experiment with human neutrophils was found to be 15.8 µM.

On to `Cc1ccc(C(=O)N/N=C/c2ccc(-c3cc(Cl)c(Cl)cc3Cl)o2)cn1` [Compound 10], for which, in the experiment on J774.A1 macrophages [1], the fold induction at 50 µM is under 5. Besides, the EC50 in the experiment on human neutrophils was 32 µM.

For the molecule `O=C(N/N=C1\C(=O)N(CCc2ccccc2)c2ccccc21)c1ccc2c(c1)OCO2` [Compound 17], in the experiment on J774.A1 macrophages [1], the fold induction at 50 µM was under 2. Moreover, in the experiment with human neutrophils, the EC50 worked out at 8.9 µM.

For the molecule `CCOc1cc(/C=N\NC(=O)c2ccc3c(c2)OCO3)cc(Br)c1O` [Compound 18], in the experiment with J774.A1 macrophages [1], the fold induction at 50 µM was under 2. The EC50 in the experiment on human neutrophils turned out to be 12.2 µM.

Turning to `CN(C)c1ccc(/C=N\NC(=O)c2ccccc2)cc1` [Compound 19], the fold induction at 50 µM in the experiment on J774.A1 macrophages [1] is under 2. In addition, the EC50 with human neutrophils stood at 14.5 µM.

Take `O=C(N/N=C/c1cc(Br)cc(Br)c1OC(=O)c1cccc(F)c1)c1ccc2c(c1)OCO2` [Compound 20]: the fold induction at 50 µM in the experiment on J774.A1 macrophages [1] is under 2. Moreover, the EC50 in the experiment on human neutrophils was determined as 18.9 µM.

For `CCOc1cc(/C=N/NC(=O)c2ccc3c(c2)OCCO3)cc(Br)c1O` [Compound 21], the fold induction at 50 µM with J774.A1 macrophages [1] is under 2. Besides, in the experiment on human neutrophils, the EC50 amounted to 21.9 µM.

Consider `COc1cc(/C=N\NC(=O)c2cccc(C)c2O)ccc1OCc1ccccc1` [Compound 25], for which the EC50 in the experiment on human neutrophils came to 0.74 µM.

Take `COc1ccc(C(=O)N/N=C\c2ccc(N(C)C)cc2)cc1` [Compound 26]: in the experiment on human neutrophils, the 50% effective concentration (EC50) amounted to 3 µM.

As for `O=C(N/N=C/c1cc(Br)cc(I)c1O)c1ccc2c(c1)OCCO2` [Compound 27], the EC50 in the experiment with human neutrophils amounted to 8 µM.

On to `O=C(N/N=C/c1cc(/N=N\c2cccc(C(F)(F)F)c2)ccc1O)c1ccc2c(c1)OCO2` [Compound 28], for which the concentration for a half-maximal effect (EC50) with human neutrophils worked out at 8.5 µM.

As to `O=C(N/N=C1\C(=O)N(Cc2cccc3ccccc23)c2ccccc21)c1ccc2c(c1)OCO2` [Compound 29], the EC50 with human neutrophils was 9.3 µM.

Turning to `O=C(N/N=C/c1cc(Br)c(Br)o1)c1ccc2c(c1)OCCO2` [Compound 30], in the experiment with human neutrophils, the EC50 came out at 9.8 µM.

As to `O=C(/C=C/c1ccco1)Oc1cccc(/C=N/NC(=O)c2ccc3c(c2)OCO3)c1` [Compound 31], the EC50 in the experiment on human neutrophils stood at 12.4 µM.

For the molecule `O=C(N/N=C/c1ccc(-c2ccc(O)c(C(=O)O)c2)o1)c1cccnc1` [Compound 32], the EC50 in the experiment on human neutrophils was 12.5 µM.

As to `CN(C)c1ccc(/C=N\NC(=O)c2cccc(F)c2)cc1` [Compound 33], the EC50 with human neutrophils was 13.1 µM.

On to `CN(C)c1ccc(/C=N/NC(=O)c2ccc3c(c2)OCO3)cc1` [Compound 34], for which the EC50 in the experiment with human neutrophils was determined as 17.9 µM.

For `O=C(N/N=C/c1ccco1)c1ccc(Br)cc1O` [Compound 35], the EC50 in the experiment with human neutrophils worked out at 22.7 µM.

In the case of `Cc1ccc(C(=O)N/N=C/c2ccc(C)o2)cc1` [Compound 36], the EC50 with human neutrophils amounted to 25.5 µM.

In the case of `O=C(N/N=C/c1c(O)ccc2ccccc12)c1ccc2c(c1)OCO2` [Compound 37], the EC50 in the experiment on human neutrophils stood at 26.8 µM.

Consider `COc1ccc(/C=N/NC(=O)c2ccc3c(c2)OCO3)c(OC)c1` [Compound 38], for which the EC50 with human neutrophils is 28.1 µM.

As for `O=C(N/N=C/c1ccco1)c1ccccc1` [Compound 39], the “Determined class of macrophage TNF-α inducing activity” value (from here on “Determined class”) in the experiment on J774.A1 macrophages [1] is “NA (inactive derivatives were placed in the nonactive group labeled “NA”)”. Further, the EC50 in the experiment on human neutrophils stood at 28.4 µM.

On to `COc1ccc(/C(C)=N/NC(=O)c2ccc3c(c2)OCCO3)cc1[N+](=O)[O-]` [Compound 78], for which, in the experiment with J774.A1 macrophages [1], the “Determined class” value was “NA (inactive derivatives were placed in the nonactive group labeled “NA”)”.

As for `COc1ccc(Cl)cc1/C=N/NC(=O)c1ccc2c(c1)OCCO2` [Compound 79], in the experiment on J774.A1 macrophages [1], the “Determined class” value is “NA (inactive derivatives were placed in the nonactive group labeled “NA”)”.

On to `CCOc1ncccc1C(=O)N/N=C/c1ccc([N+](=O)[O-])o1` [Compound 80], for which, in the experiment on J774.A1 macrophages [1], the “Determined class” value was “NA (inactive derivatives were placed in the nonactive group labeled “NA”)”.

Consider `O=C(N/N=C/c1ccco1)c1cccnc1` [Compound 81], for which the “Determined class” value with J774.A1 macrophages [1] was “NA (inactive derivatives were placed in the nonactive group labeled “NA”)”.

Consider `O=C(N/N=C/c1ccc(-c2ccc(Cl)c([N+](=O)[O-])c2)o1)c1ccc2c(c1)OCO2` [Compound 82], for which, in the experiment on J774.A1 macrophages [1], the “Determined class” value is “NA (inactive derivatives were placed in the nonactive group labeled “NA”)”.

As for `O=C(N/N=C/c1ccc(-c2ccc(Cl)cc2)o1)c1ccncc1` [Compound 83], in the experiment with J774.A1 macrophages [1], the “Determined class” value was “NA (inactive derivatives were placed in the nonactive group labeled “NA”)”.

Consider `O=C(N/N=C/c1ccc(-c2ccc(Cl)c(Cl)c2)o1)c1ccncc1` [Compound 84], for which, in the experiment on J774.A1 macrophages [1], the “Determined class” value is “NA (inactive derivatives were placed in the nonactive group labeled “NA”)”.

Regarding `CCc1ccc(C(=O)N/N=C/c2ccc(-c3ccc(C)c(Cl)c3)o2)nc1` [Compound 85], the “Determined class” value in the experiment on J774.A1 macrophages [1] was “NA (inactive derivatives were placed in the nonactive group labeled “NA”)”.

As for `O=C(N/N=C/c1ccc(-c2cccc(Br)c2)o1)c1ccccn1` [Compound 86], the “Determined class” value in the experiment with J774.A1 macrophages [1] is “NA (inactive derivatives were placed in the nonactive group labeled “NA”)”.

On to `CSCC[C@H](NC=O)C(=O)N[C@@H](CC(C)C)C(=O)N[C@@H](Cc1ccccc1)C(=O)O` [fMLF, N-formyl-Met-Leu-Phe, reference compound], for which the “TNF-α production by peptide agonists” value with J774.A1 macrophages [1] (50 μM, 24 hr) is recorded as “failed to induce macrophage TNF-α production”.

On to `C[C@H](CCC(=O)O)C[C@H](C)C[C@H](C)C(=O)/C=C(\O)[C@H](C)C[C@H](C)C/C=C/[C@@H](C)[C@@H](O)[C@@H](C)[C@@H](O)C[C@@H]1CC[C@@](C)([C@H]2CC[C@@](C)([C@@H](C)O)O2)O1` [ionomycin, reference compound], for which the EC50 in the experiment on J774.A1 macrophages [2] was determined as 0.58 ± 0.3 µM.

For the origin of these results see patent US20100035932A1, “NOVEL FORMYL PEPTIDE RECEPTOR LIKE 1 AGONISTS THAT INDUCE MACROPHAGE TUMOR NECROSIS FACTOR ALPHA AND COMPUTATIONAL STRUCTURE-ACTIVITY RELATIONSHIP ANALYSIS OF THEREOF” (priority 2008, published 2010).
